The values below are quoted from earlier work in patent publication US7247427B1, “Leptin assay” (Yeda Research and Development Co., Ltd., priority 1999, dated 2007).

This data set has as its system cultured adipocytes. To be noted: no Angiopoietin-2 expressed in the absence of leptin.

“leptin: the product of the obese gene, expressed in adipocytes; regulates food intake and energy metabolism through its receptor OB-R”: the “expression of the angiopoietin-2 gene” value is on record as “specifically induces the expression of the angiopoietin-2 gene”.
